According to patent US20260042755A1, “GPR6 INVERSE AGONISTS” (MapLight Therapeutics, Inc., priority 2022, published 2026):

Key:
GPR3 = target: T1, GPR3 (Homo sapiens, UniProt P46089); experiment: GPR3 antagonist functional cAMP assay (LANCE Ultra cAMP TR-FRET, CHO cells stably expressing GPR3); assay type: cell-based
T1 construct: expressed in transfected cells; host or cells: CHO cells
Summary of the method: (§1)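 Suspended cells were plated at 10,000 per well in Krebs-Ringer bicarbonate buffer containing 0.1% BSA and 150 μM Ro 20-1724, then treated with compounds for 45 min at 37 °C. Intracellular cAMP was then quantified by TR-FRET immunoassay.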

GPR6 = target: T2, GPR6 (Homo sapiens, UniProt P46095); experiment: GPR6 antagonist functional cAMP assay (LANCE Ultra cAMP TR-FRET, CHO cells stably expressing GPR6); assay type: cell-based
T2 construct: expressed in transfected cells; host or cells: CHO cells
T2 sequence (P46095 whole entry): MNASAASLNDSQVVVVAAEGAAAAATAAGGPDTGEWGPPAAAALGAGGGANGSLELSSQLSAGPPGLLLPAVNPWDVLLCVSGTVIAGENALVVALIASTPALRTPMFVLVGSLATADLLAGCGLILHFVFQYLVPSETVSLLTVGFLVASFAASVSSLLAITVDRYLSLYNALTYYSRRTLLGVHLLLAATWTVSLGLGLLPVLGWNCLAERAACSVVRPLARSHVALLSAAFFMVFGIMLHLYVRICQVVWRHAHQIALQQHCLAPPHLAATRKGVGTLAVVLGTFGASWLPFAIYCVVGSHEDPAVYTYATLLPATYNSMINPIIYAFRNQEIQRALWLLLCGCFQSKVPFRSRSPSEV
Summary of the method: as §1

[1] = CHO cells stably expressing GPR3, cAMP assay (Example 24)
[2] = CHO cells stably expressing GPR6, cAMP assay (Example 24)

T1 sequence (P46089 whole entry, species assumed): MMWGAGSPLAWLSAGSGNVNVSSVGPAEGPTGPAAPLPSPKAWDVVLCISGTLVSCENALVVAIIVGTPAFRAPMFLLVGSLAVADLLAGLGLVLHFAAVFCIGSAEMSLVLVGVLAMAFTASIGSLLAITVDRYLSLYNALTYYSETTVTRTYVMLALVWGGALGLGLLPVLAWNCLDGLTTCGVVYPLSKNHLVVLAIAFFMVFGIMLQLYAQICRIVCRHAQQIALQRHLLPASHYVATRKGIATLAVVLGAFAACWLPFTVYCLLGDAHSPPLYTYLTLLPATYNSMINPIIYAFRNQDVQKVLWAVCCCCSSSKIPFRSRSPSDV

| Structure (SMILES) | IC50 (GPR3; [1]) | IC50 (GPR6; [2]) | IC50 (GPR3; procedure of Example 24) | IC50 (GPR6; procedure of Example 24) |
| --- | --- | --- | --- | --- |
| CC(=O)N1CCc2nc(N3CCC(Oc4ccc(F)cc4F)CC3)c(C3CCOCC3)nc2C1 [Compound 236, 1-{2-[4-(2,4-difluorophenoxy)piperidin-1-yl]-3-(oxan-4-yl)-5H,6H,7H,8H-pyrido[3,4-b]pyrazin-6-yl}ethan-1-one] | 1000 to 30000 nM | 1000 to 30000 nM | – | – |
| CC(=O)N1CCc2nc(N3CCC(Oc4ccc(F)cc4F)CC3)c(C3CCCOC3)nc2C1 (stereo not shown) [Compound 237, 1-{2-[4-(2,4-difluorophenoxy)piperidin-1-yl]-3-(oxan-3-yl)-5H,6H,7H,8H-pyrido[3,4-b]pyrazin-6-yl}ethan-1-one] | 1000 to 30000 nM | 1000 to 30000 nM | – | – |
| Cn1cc(-c2nc3cnccc3nc2N2CCN(CC3CCCOC3)CC2)cn1 (stereo not shown) [Compound 241, 1-[3-(1-methyl-1H-pyrazol-4-yl)pyrido[3,4-b]pyrazin-2-yl]-4-[(oxan-3-yl)methyl]piperazine] | ≥ 30000 nM | ≥ 30000 nM | – | – |
| Cn1cc(-c2nc3cnccc3nc2N2CCN(CC3CCOCC3)CC2)cn1 [Compound 242, 1-[3-(1-methyl-1H-pyrazol-4-yl)pyrido[3,4-b]pyrazin-2-yl]-4-[(oxan-4-yl)methyl]piperazine] | 1000 to 30000 nM | ≥ 30000 nM | – | – |
| Cn1cc(-c2nc3cnccc3nc2N2CCN(CC3CCCCO3)CC2)cn1 (stereo not shown) [Compound 246, 1-[3-(1-methyl-1H-pyrazol-4-yl)pyrido[3,4-b]pyrazin-2-yl]-4-[(oxan-2-yl)methyl]piperazine] | ≥ 30000 nM | ≥ 30000 nM | – | – |
| COC1C=C(c2nc3c(nc2N2CCC(Oc4ccc(F)cc4F)CC2)CCN(C(C)=O)C3)CCC1 (stereo not shown) [Compound 247, 1-{2-[4-(2,4-difluorophenoxy)piperidin-1-yl]-3-(3-methoxycyclohex-1-en-1-yl)-5H,6H,7H,8H-pyrido[3,4-b]pyrazin-6-yl}ethan-1-one] | 1000 to 30000 nM | 100 to 1000 nM | – | – |
| COC1CCCC(c2nc3c(nc2N2CCC(Oc4ccc(F)cc4F)CC2)CCN(C(C)=O)C3)C1 (stereo not shown) [Compound 248, 1-{2-[4-(2,4-difluorophenoxy)piperidin-1-yl]-3-(3-methoxycyclohexyl)-5H,6H,7H,8H-pyrido[3,4-b]pyrazin-6-yl}ethan-1-one] | 1000 to 30000 nM | 1000 to 30000 nM | – | – |
| CC(=O)N1CCc2nc(N3CCN(Cc4ccccc4F)CC3)c(-c3cnn(C)c3)nc2C1 [Compound 252, 1-(2-{4-[(2-fluorophenyl)methyl]piperazin-1-yl}-3-(1-methyl-1H-pyrazol-4-yl)-5H,6H,7H,8H-pyrido[3,4-b]pyrazin-6-yl)ethan-1-one] | 1000 to 30000 nM | 100 to 1000 nM | – | – |
| CC(=O)N1CCc2nc(N3CCN(C(=O)c4ccc(F)cc4Cl)CC3)c(-c3cnn(C)c3)nc2C1 [Compound 253, 1-{2-[4-(2-chloro-4-fluorobenzoyl)piperazin-1-yl]-3-(1-methyl-1H-pyrazol-4-yl)-5H,6H,7H,8H-pyrido[3,4-b]pyrazin-6-yl}ethan-1-one] | 1000 to 30000 nM | 1000 to 30000 nM | – | – |
| COc1ccc(C(=O)N2CCN(c3nc4c(nc3-c3cnn(C)c3)CN(C(C)=O)CC4)CC2)c(F)c1 [Compound 254, 1-{2-[4-(2-fluoro-4-methoxybenzoyl)piperazin-1-yl]-3-(1-methyl-1H-pyrazol-4-yl)-5H,6H,7H,8H-pyrido[3,4-b]pyrazin-6-yl}ethan-1-one] | 1000 to 30000 nM | 1000 to 30000 nM | – | – |
| CC(=O)N1CCc2nc(N3CCN(C(=O)c4ccc(F)cc4)CC3)c(-c3cnn(C)c3)nc2C1 [Compound 255, 1-{2-[4-(4-fluorobenzoyl)piperazin-1-yl]-3-(1-methyl-1H-pyrazol-4-yl)-5H,6H,7H,8H-pyrido[3,4-b]pyrazin-6-yl}ethan-1-one] | 1000 to 30000 nM | 1000 to 30000 nM | – | – |
| CC(=O)N1CCc2nc(N3CCN(Cc4cccc(F)c4)CC3)c(-c3cnn(C)c3)nc2C1 [Compound 256, 1-(2-{4-[(3-fluorophenyl)methyl]piperazin-1-yl}-3-(1-methyl-1H-pyrazol-4-yl)-5H,6H,7H,8H-pyrido[3,4-b]pyrazin-6-yl)ethan-1-one] | 1000 to 30000 nM | 1000 to 30000 nM | – | – |
| CC(=O)N1CCc2nc(N3CCN(Cc4ccc(F)cc4)CC3)c(-c3cnn(C)c3)nc2C1 [Compound 257, 1-(2-{4-[(4-fluorophenyl)methyl]piperazin-1-yl}-3-(1-methyl-1H-pyrazol-4-yl)-5H,6H,7H,8H-pyrido[3,4-b]pyrazin-6-yl)ethan-1-one] | 1000 to 30000 nM | 1000 to 30000 nM | – | – |
| CC(=O)N1CCc2nc(N3CCC(Oc4ccc(F)cc4F)CC3)c(C3CCCC(=O)N3)nc2C1 (stereo not shown) [Compound 258, 6-{6-acetyl-2-[4-(2,4-difluorophenoxy)piperidin-1-yl]-5H,6H,7H,8H-pyrido[3,4-b]pyrazin-3-yl}piperidin-2-one] | ≥ 30000 nM | ≥ 30000 nM | – | – |
| CC(=O)N1CCc2nc(N3CCC(Oc4ccc(F)cc4F)CC3)c(C3CCNCC3)nc2C1 [Compound 265, 1-{2-[4-(2,4-difluorophenoxy)piperidin-1-yl]-3-(piperidin-4-yl)-5H,6H,7H,8H-pyrido[3,4-b]pyrazin-6-yl}ethan-1-one] | 1000 to 30000 nM | 1000 to 30000 nM | – | – |

Results, then the molecule that gave them:

| IC50 (GPR3; [1]) | IC50 (GPR6; [2]) | IC50 (GPR3; procedure of Example 24) | IC50 (GPR6; procedure of Example 24) | Structure (SMILES) |
| --- | --- | --- | --- | --- |
| 1000 to 30000 nM | 1000 to 30000 nM | – | – | CCOc1cncc(-c2nc3c(nc2N2CCC(Oc4ccc(F)cc4F)CC2)CCN(C(C)=O)C3)n1 [Compound 233, 1-{2-[4-(2,4-difluorophenoxy)piperidin-1-yl]-3-(6-ethoxypyrazin-2-yl)-5H,6H,7H,8H-pyrido[3,4-b]pyrazin-6-yl}ethan-1-one] |
| 1000 to 30000 nM | 1000 to 30000 nM | – | – | CC(=O)N1CCc2nc(N3CCC(Oc4ccc(F)cc4F)CC3)c(C3=CC(O)CCC3)nc2C1 (stereo not shown) [Compound 234, 1-{2-[4-(2,4-difluorophenoxy)piperidin-1-yl]-3-(3-hydroxycyclohex-1-en-1-yl)-5H,6H,7H,8H-pyrido[3,4-b]pyrazin-6-yl}ethan-1-one] |
| 1000 to 30000 nM | 1000 to 30000 nM | – | – | COc1cc(-c2nc3c(nc2N2CCC(Oc4ccc(F)cc4F)CC2)CCN(C(C)=O)C3)cnn1 [Compound 235, 1-{2-[4-(2,4-difluorophenoxy)piperidin-1-yl]-3-(6-methoxypyridazin-4-yl)-5H,6H,7H,8H-pyrido[3,4-b]pyrazin-6-yl}ethan-1-one] |
| 1000 to 30000 nM | 1000 to 30000 nM | – | – | CC(=O)N1CCc2nc(N3CCC(Oc4ccc(F)cc4F)CC3)c(-c3cncc(OC(F)F)n3)nc2C1 [Compound 239, 1-{3-[6-(difluoromethoxy)pyrazin-2-yl]-2-[4-(2,4-difluorophenoxy)piperidin-1-yl]-5H,6H,7H,8H-pyrido[3,4-b]pyrazin-6-yl}ethan-1-one] |
| 1000 to 30000 nM | 1000 to 30000 nM | – | – | CC(=O)N1CCc2nc(N3CCC(Oc4ccc(F)cc4F)CC3)c(-c3cncc(Cl)n3)nc2C1 [Compound 243] |
| 1000 to 30000 nM | 100 to 1000 nM | – | – | CC(=O)N1CCc2nc(N3CCC(Oc4ccc(F)cc4F)CC3)c(-c3cnn4c3COCC4)nc2C1 [Compound 245, 1-{2-[4-(2,4-difluorophenoxy)piperidin-1-yl]-3-{4H,6H,7H-pyrazolo [3,2-c][1,4]oxazin-3-yl}-5H,6H,7H,8H-pyrido[3,4-b]pyrazin-6-yl}ethan-1-one] |
| 1000 to 30000 nM | 1000 to 30000 nM | – | – | Cn1cc(-c2nc3cnc(C(O)C4CC4)cc3nc2N2CCC(Oc3ccc(F)cc3F)CC2)cn1 (stereo not shown) [Compound 250, cyclopropyl(2-(4-(2,4-difluorophenoxy)piperidin-1-yl)-3-(1-methyl-1H-pyrazol-4-yl)pyrido[3,4-b]pyrazin-7-yl)methanol] |
| 1000 to 30000 nM | 1000 to 30000 nM | – | – | COC(=O)c1cc2nc(N3CCC(Oc4ccc(F)cc4F)CC3)c(-c3cnn(C)c3)nc2cn1 [Compound 251, methyl 2-[4-(2,4-difluorophenoxy)piperidin-1-yl]-3-(1-methyl-1H-pyrazol-4-yl)pyrido[3,4-b]pyrazine-7-carboxylate] |
| ≥ 30000 nM | ≥ 30000 nM | – | – | Cn1cc(-c2nc3cnccc3nc2N2CCN(Cc3ccc(F)cc3F)CC2=O)cn1 [Compound 259, 4-(2,4-difluorobenzyl)-1-(3-(1-methyl-1H-pyrazol-4-yl)pyrido[3,4-b]pyrazin-2-yl)piperazin-2-one] |
| 1000 to 30000 nM | 1000 to 30000 nM | – | – | CCn1cc(-c2nc3c(nc2N2CCC(Oc4ccc(F)cc4F)CC2)CCN(C(=O)OC(C)(C)C)C3)cn1 [Compound 260, tert-butyl 2-[4-(2,4-difluorophenoxy)piperidin-1-yl]-3-(1-ethyl-1H-pyrazol-4-yl)-5H,6H,7H,8H-pyrido[3,4-b]pyrazine-6-carboxylate] |
| 1000 to 30000 nM | 100 to 1000 nM | – | – | Cn1cc(-c2nc3cnc(C(O)C(C)(C)O)cc3nc2N2CCC(Oc3ccc(F)cc3F)CC2)cn1 (stereo not shown) [Compound 263, 1-(2-(4-(2,4-difluorophenoxy)piperidin-1-yl)-3-(1-methyl-1H-pyrazol-4-yl)pyrido[3,4-b]pyrazin-7-yl)-2-methylpropane-1,2-diol] |
| 1000 to 30000 nM | < 100 nM | – | – | CC(C)(O)C(O)c1cc2nc(N3CCN(Cc4ccc(F)cc4F)CC3)c(-c3cnn(C(F)F)c3)nc2cn1 (stereo not shown) [Compound 264, 1-{3-[1-(difluoromethyl)-1H-pyrazol-4-yl]-2-{4-[(2,4-difluorophenyl)methyl]piperazin-1-yl}pyrido[3,4-b]pyrazin-7-yl}-2-methylpropane-1,2-diol] |
| – | – | 1000 to 30000 nM | < 100 nM | CCn1cc(-c2nc3c(nc2N2CCC(Oc4ccc(F)cc4F)CC2)CCN(S(=O)(=O)C(C)C)C3)cn1 [Compound 266, 4-(2,4-difluorophenoxy)-1-[3-(1-ethyl-1H-pyrazol-4-yl)-6-(propane-2-sulfonyl)-5H,6H,7H,8H-pyrido[3,4-b]pyrazin-2-yl]piperidine] |
| – | – | 1000 to 30000 nM | 100 to 1000 nM | CCn1cc(-c2nc3c(nc2N2CCC(Oc4ccc(F)cc4F)CC2)CCN(S(=O)(=O)CC)C3)cn1 [Compound 267, 4-(2,4-difluorophenoxy)-1-[6-(ethanesulfonyl)-3-(1-ethyl-1H-pyrazol-4-yl)-5H,6H,7H,8H-pyrido[3,4-b]pyrazin-2-yl]piperidine] |
